Measured values taken from patent US20200253990A1, “ASPIRIN FORMULATION FOR INCREASED EFFICACY” (Vitalis LLC, priority 2013, published 2020).

Experiments:
[1] = system: Healthy human patients who experience non-specific headaches; test: Headache rated on 10-point scale, aspirin alone, Example 5; type: in vivo; conditions: 30 minutes
Method: (§1) Healthy human patients who experience non-specific headaches were recruited for this study. […] Each patient was asked to rate his or her headache on the 10-point scale (see FIG. 3). The patient then swallowed 891 mg of aspirin (11 tablets of 81 mg each) without chewing. Each patient was asked to rate his or headache again on the 10-point scale 30-minutes later. […] The patient then chewed 891 mg of aspirin (11 tablets of 81 mg each) and rubbed the aspirin in their oral mucosa, lips, gums and mouth and was asked to be careful not to swallow any of the aspirin, but to wash out their mouth afterwards with a sip of soda and spitting out such that no aspirin was swallowed. Each patient was asked to rate his or headache again on the 10-point scale 30-minutes later. Not until at least two days later did Period III start. […] The patient then chewed 891 mg of aspirin (11 tablets of 81 mg each) and rubbed the aspirin in their oral mucosa, lips, gums and mouth for about 10 seconds or until half was dissolved, then to take a sip of soda to wash the rest, but this time to swallow the soda and aspirin such that half was swallowed. Each patient was asked to rate his or headache again on the 10-point scale 30-minutes later.

[2] = cited from earlier work
[3] = system: Healthy human patients who experience non-specific headaches; test: Headache rated on 10-point scale, aspirin with acetaminophen and caffeine, Example 4; type: in vivo; conditions: 30 minutes
Method: as §1, with “486” for “891”, “(6” for “(11”, “chewing, immediately followed by swallowing a combination of pill 1000 mg acetaminophen and 130 mg caffeine.” for “chewing.”, “swallowed. This was immediately followed by the patient swallowing a combination pill of 1000 mg acetaminophen and 130 mg caffeine.” for “swallowed.”

Healthy human patients = test: Niacin flush rated on the Global Flush Severity Scale (GFSS), Example 1; type: in vivo; conditions: then 500 mg niacin
Method: Healthy human patients were recruited for this study. […] Each patient was asked to rate his or her flush on the Global Flush Severity Scale (GFSS) (see FIG. 1 and Paolini et al. Int. J. Clin. Pract. 62(6):896-904 (2008)), when the flush completely resolved. The Global Flushing Severity Score measures, overall, in the previous 24 hours, how each patient rates the flushing symptoms, including redness, warmth, tingling, and itchiness of the skin. […] After the flush completely resolved, then each patient recorded his or her GFSS flush rating. Not until at least two days later did Period III start. At Period III, each patient was asked to not swallow the orally administered aspirin (81 mg) but to allow the aspirin to be absorbed through the oral mucosa. The aspirin was in powdered form and the remaining aspirin in the mouth was washed out with water. […] Still, the flush was rated (GFSS) after it was resolved. […] The flush was then rated (GFSS) after it completely resolved.

[4] = Period II: 81 mg aspirin swallowed
[5] = Period IV: 81 mg aspirin half mucosally absorbed and half swallowed

Row | SMILES | decrease in headache ([1]; Period I: 891 mg aspirin swallowed) | decrease in headache ([1]; Period II: 891 mg aspirin chewed, oral mucosa only, none swallowed) | decrease in headache ([1]; Period III: 891 mg aspirin half dissolved in mouth, half swallowed) | time to peak of aspirin serum levels following administration ([2]; GI-absorbed aspirin) | decrease in headache ([3]; Period I: 486 mg aspirin swallowed + 1000 mg acetaminophen and 130 mg caffeine) | decrease in headache ([3]; Period II: 486 mg aspirin chewed, oral mucosa only, none swallowed + 1000 mg acetaminophen and 130 mg caffeine) | decrease in headache ([3]; Period III: 486 mg aspirin half dissolved in mouth, half swallowed + 1000 mg acetaminophen and 130 mg caffeine) | Global Flush Severity Scale (GFSS) average score (Healthy human patients; [4]) | reduction of flush severity from Period I (Healthy human patients; [4]) | Global Flush Severity Scale (GFSS) average score (Healthy human patients; Period III: 81 mg aspirin mucosally absorbed (not swallowed)) | reduction of flush severity from Period I (Healthy human patients; Period III: 81 mg aspirin mucosally absorbed) | Global Flush Severity Scale (GFSS) average score (Healthy human patients; [5]) | reduction of flush severity from Period I (Healthy human patients; [5]) | time within which most of the elimination from the serum occurs ([2]; salicylic acid, metabolite of aspirin)
1 | CC(=O)Oc1ccccc1C(=O)O [aspirin, acetylsalicylic acid] | 53% | 57% | 86% | 15 to 20 min | 55% | 62% | 77% | 6.88 | 18% | 5.06 | 40% | 3.94 | 53% | 
2 | O=C(O)c1ccccc1O [salicylic acid] |  |  |  |  |  |  |  |  |  |  |  |  |  | ≤ 20 min
